Data from US20260274833A1 (NiKang Therapeutics, Inc., priority 2022, published 2026).

Target: T1, CDK2 (Homo sapiens, UniProt P24941)
T1 construct: endogenous in cells; host or cells: OVCAR3 cells
Experiment: Phospho-RB measurement in OVCAR3 cells (HTRF phospho-RB cellular kit)
Type: cell-based
Details: inhibition of RB phosphorylation at S807/811 (HTRF, TR-FRET ratio 665/620), 24 h compound treatment, 0.3 to 10,000 nM
Procedure, shortened: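 IC50 came from a four-parameter logistic fit of the DMSO-normalized TR-FRET ratio (665/620 nm). That ratio reflects RB phosphorylation at S807/811, read with an HTRF antibody pair 4 h after adding lysate at room temperature.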

| SMILES | IC50 [nM] |
| --- | --- |
| CN(C)CCN(C)S(=O)(=O)N1CCC(Nc2nccc(-c3sc(C(C)(C)C)nc3-c3cccc(NS(=O)(=O)N(C)C)c3F)n2)CC1 [Example 135, 4-((4-(2-(tert-butyl)-4-(3-((N,N-dimethyl-sulfamoyl)amino)-2-fluoro-phenyl)thiazol-5-yl)pyrimidin-2-yl)amino)-N-(2-(dimethyl-amino)ethyl)-N-methylpiperidine-1-sulfonamide] | 474 |
| CC(C)(C)c1nc(-c2cccc(NS(=O)(=O)N3CCOc4ccccc43)c2F)c(-c2ccnc(NC3CCN(S(=O)(=O)N4CCNCC4)CC3)n2)s1 [Example 136, N-(3-(2-(tert-butyl)-5-(2-((1-(piperazin-1-ylsulfonyl)piperidin-4-yl)amino)-pyrimidin-4-yl)thiazol-4-yl)-2-fluorophenyl)-2,3-dihydro-4H-benzo[b][1,4] oxazine-4-sulfonamide] | 1490 |
| CN1CCN(S(=O)(=O)Nc2cccc(-c3nc(C(C)(C)C)sc3-c3ccnc(NC4CCN(S(C)(=O)=O)CC4)n3)c2F)Cc2ccccc21 [Example 137, N-(3-(2-(tert-butyl)-5-(2-((1-(methylsulfonyl)-piperidin-4-yl)amino)-pyrimidin-4-yl)thiazol-4-yl)-2-fluoro-phenyl)-1-methyl-1,2,3,5-tetrahydro-4H-benzo[e][1,4] diazepine-4-sulfonamide] | 286 |
| CN(C)CCN(C)S(=O)(=O)N1CCC(Nc2nccc(-c3sc(C(C)(C)C)nc3-c3cccc(NS(=O)(=O)N4CCNc5ccccc5C4)c3F)n2)CC1 [Example 139, N-(3-(2-(tert-butyl)-5-(2-((1-(N-(2-(dimethyl-amino)ethyl)-N-methyl-sulfamoyl)piperidin-4-yl)amino)-pyrimidin-4-yl)thiazol-4-yl)-2-fluoro-phenyl)-1,2,3,5-tetrahydro-4H-benzo[e][1,4] diazepine-4-sulfonamide] | 291 |
| C[C@@H]1Cc2ccccc2N1S(=O)(=O)Nc1cccc(-c2nc(C(C)(C)C)sc2-c2ccnc(NC3CCN(S(=O)(=O)N4CCNCC4)CC3)n2)c1F [Example 140, (R)-N-(3-(2-(tert-butyl)-5-(2-((1-(piperazin-1-ylsulfonyl)piperidin-4-yl)amino)pyrimidin-4-yl)thiazol-4-yl)-2-fluorophenyl)-2-methyl-indoline-1-sulfonamide] | 622 |
| CN(C)Cc1ccc2c(c1)N(S(=O)(=O)Nc1cccc(-c3nc(C(C)(C)C)sc3-c3ccnc(NC4CCN(S(C)(=O)=O)CC4)n3)c1F)CC2 [Example 142, N-(3-(2-(tert-butyl)-5-(2-((1-(methylsulfonyl)-piperidin-4-yl)amino)-pyrimidin-4-yl)thiazol-4-yl)-2-fluoro-phenyl)-6-((dimethylamino)-methyl)-indoline-1-sulfonamide] | 341 |
| CC(C)(C)c1nc(-c2cccc(NS(=O)(=O)N3Cc4ccc(F)cc4C3)c2F)c(-c2ccnc(NC3CCN(S(=O)(=O)N4CCNCC4)CC3)n2)s1 [Example 144, N-(3-(2-(tert-butyl)-5-(2-((1-(piperazin-1-ylsulfonyl)piperidin-4-yl)amino)-pyrimidin-4-yl)thiazol-4-yl)-2-fluoro-phenyl)-5-fluoro-isoindoline-2-sulfonamide] | 227 |
| CNC(=O)c1cccc2c1CN(S(=O)(=O)Nc1cccc(-c3nc(C(C)(C)C)sc3-c3ccnc(NC4CCN(S(C)(=O)=O)CC4)n3)c1F)C2 [Example 145, 2-(N-(3-(2-(tert-butyl)-5-(2-((1-(methyl-sulfonyl)piperidin-4-yl)amino)pyrimidin-4-yl)thiazol-4-yl)-2-fluorophenyl)-sulfamoyl)-N-methyliso-indoline-4-carboxamide] | 389 |
| CNS(=O)(=O)Nc1cccc(-c2nc(C(C)(C)C)sc2-c2ccnc(NC3CCN(S(=O)(=O)N4CCNCC4)CC3)n2)c1F [Example 146, N-(3-(2-(tert-butyl)-5-(2-((1-(piperazin-1-ylsulfonyl)piperidin-4-yl)amino)-pyrimidin-4-yl)thiazol-4-yl)-2-fluoro-phenyl)-methylamine-sulfonamide] | 3010 |
| C[C@H]1Cc2ccccc2N1S(=O)(=O)Nc1cccc(-c2nc(C(C)(C)C)sc2-c2ccnc(NC3CCN(S(=O)(=O)N4CCNCC4)CC3)n2)c1F [Example 147, (S)-N-(3-(2-(tert-butyl)-5-(2-((1-(piperazin-1-ylsulfonyl)piperidin-4-yl)amino)pyrimidin-4-yl)thiazol-4-yl)-2-fluorophenyl)-2-methylindoline-1-sulfonamide] | 458 |
| CC1c2ccccc2CN1S(=O)(=O)Nc1cccc(-c2nc(C(C)(C)C)sc2-c2ccnc(NC3CCN(S(=O)(=O)N4CCNCC4)CC3)n2)c1F (stereo not shown) [Example 148, N-(3-(2-(tert-butyl)-5-(2-((1-(piperazin-1-ylsulfonyl)piperidin-4-yl)amino)-pyrimidin-4-yl)thiazol-4-yl)-2-fluoro-phenyl)-1-methylisoindoline-2-sulfonamide] | 210 |
| CC(C)(C)c1nc(-c2cccc(NS(=O)(=O)N3Cc4ccc(C#N)cc4C3)c2F)c(-c2ccnc(NC3CCN(S(=O)(=O)N4CCNCC4)CC3)n2)s1 [Example 149, N-(3-(2-(tert-butyl)-5-(2-((1-(piperazin-1-ylsulfonyl)piperidin-4-yl)amino)-pyrimidin-4-yl)thiazol-4-yl)-2-fluoro-phenyl)-5-cyanoisoindoline-2-sulfonamide] | 488 |
| CN(C)C(=O)c1ccc2c(c1)N(S(=O)(=O)Nc1cccc(-c3nc(C(C)(C)C)sc3-c3ccnc(NC4CCN(S(C)(=O)=O)CC4)n3)c1F)CC2 [Example 152, 1-(N-(3-(2-(tert-butyl)-5-(2-((1-(methyl-sulfonyl)piperidin-4-yl)amino)pyrimidin-4-yl)thiazol-4-yl)-2-fluorophenyl)-sulfamoyl)-N,N-dimethylindoline-6-carboxamide] | 397 |
| CC(C)(C)c1nc(-c2cccc(NS(=O)(=O)N3CCc4ccncc43)c2F)c(-c2ccnc(NC3CCN(S(C)(=O)=O)CC3)n2)s1 [Example 154, N-(3-(2-(tert-butyl)-5-(2-((1-(methylsulfonyl)-piperidin-4-yl)amino)-pyrimidin-4-yl)thiazol-4-yl)-2-fluoro-phenyl)-2,3-dihydro-1H-pyrrolo[2,3-c]-pyridine-1-sulfonamide] | 685 |
| CN(C)CCN(C)S(=O)(=O)N1CCC(Nc2nccc(-c3sc(C(C)(C)C)nc3-c3cccc(NS(=O)(=O)N4Cc5ccccc5C4)c3F)n2)CC1 [Example 156, N-(3-(2-(tert-butyl)-5-(2-((1-(N-(2-(dimethylamino)ethyl)-N-methyl-sulfamoyl)piperidin-4-yl)amino)-pyrimidin-4-yl)thiazol-4-yl)-2-fluoro-phenyl)isoindoline-2-sulfonamide] | 90.3 |

Further molecules by falling IC50, results first:

| IC50 [nM] | SMILES |
| --- | --- |
| 1840 | CN(C)CCOc1cccc2c1CN(S(=O)(=O)Nc1cccc(-c3nc(C(C)(C)C)sc3-c3ccnc(NC4CCN(S(C)(=O)=O)CC4)n3)c1F)C2 [Example 150, N-(3-(2-(tert-butyl)-5-(2-((1-(methylsulfonyl)piperidin-4-yl)amino)-pyrimidin-4-yl)thiazol-4-yl)-2-fluoro-phenyl)-4-(2-(dimethylamino)-ethoxy)-isoindoline-2-sulfonamide] |
| 1060 | CC(C)(C)c1nc(-c2cccc(NS(=O)(=O)N3CC4CC4C3)c2F)c(-c2ccnc(NC3CCN(S(=O)(=O)N4CCNCC4)CC3)n2)s1 (stereo not shown) [Example 155, N-(3-(2-(tert-butyl)-5-(2-((1-(piperazin-1-ylsulfonyl)piperidin-4-yl)amino)-pyrimidin-4-yl)thiazol-4-yl)-2-fluorophenyl)-3-azabicyclo[3.1.0]-hexane-3-sulfonamide] |
| 589 | CNCc1cccc2c1CCN2S(=O)(=O)Nc1cccc(-c2nc(C(C)(C)C)sc2-c2ccnc(NC3CCN(S(C)(=O)=O)CC3)n2)c1F [Example 134, N-(3-(2-(tert-butyl)-5-(2-((1-(methylsulfonyl)-piperidin-4-yl)amino)-pyriidin-4-yl)thiazol-4-yl)-2-fluoro-phenyl)-4-((methylamino)methyl)-indoline-1-sulfonamide] |
| 396 | CN1CCN(S(=O)(=O)N2CCC(Nc3nccc(-c4sc(C(C)(C)C)nc4-c4cccc(NS(=O)(=O)N5CCNc6ccccc6C5)c4F)n3)CC2)CC1 [Example 138, N-(3-(2-(tert-butyl)-5-(2-((1-((4-methylpiperazin-1-yl)sulfonyl)piperidin-4-yl)amino)pyrimidin-4-yl)thiazol-4-yl)-2~fluorophenyl)-1,2,3,5-tetrahydro-4H-benzo[e][1,4] diazepine-4-sulfonamide] |
| 355 | CNC(=O)c1ccc2c(c1)N(S(=O)(=O)Nc1cccc(-c3nc(C(C)(C)C)sc3-c3ccnc(NC4CCN(S(C)(=O)=O)CC4)n3)c1F)CC2 [Example 151, 1-(N-(3-(2-(tert-butyl)-5-(2-((1-(methyl-sulfonyl)piperidin-4-yl)amino)pyrimidin-4-yl)thiazol-4-yl)-2-fluorophenyl)-sulfamoyl)-N-methylindoline-6-carboxamide] |
| 291 | CC(C)(C)c1nc(-c2cccc(NS(=O)(=O)N3CCc4ncccc43)c2F)c(-c2ccnc(NC3CCN(S(C)(=O)=O)CC3)n2)s1 [Example 141, N-(3-(2-(tert-butyl)-5-(2-((1-(methylsulfonyl)-piperidin-4-yl)amino)-pyrimidin-4-yl)thiazol-4-yl)-2-fluoro-phenyl)-2,3-dihydro-1H-pyrrolo [3,2-b]-pyridine-1-sulfonamide] |
| 136 | COc1cccc2c1CN(S(=O)(=O)Nc1cccc(-c3nc(C(C)(C)C)sc3-c3ccnc(NC4CCN(S(=O)(=O)N5CCNCC5)CC4)n3)c1F)C2 [Example 143, N-(3-(2-(tert-butyl)-S-(2-((1-(piperazin-1-ylsulfonyl)piperidin-4-yl)amino)-pyrimidin-4-yl)thiazol-4-yl)-2-fluoro-phenyl)-4-methoxy-isoindoline-2-sulfonamide] |
